Laboratory results as given in patent US10927096B2, “Ester substituted ion channel blockers and methods for use” (Nocion Therapeutics, Inc., priority 2019, dated 2021).
pIC50: −log10 of the molar value.

Assays:
[1] = target: T1, NaV1.7 (Homo sapiens, UniProt Q15858); assay: Automated patch clamp (Qube 384), internal block of NaV1.7 in HEK293 cells; assay type: cell-based; conditions: compound in internal solution, read-out: NaV1.7 Intracellular Inhibition
T1 construct: expressed in transfected cells; host or cells: HEK293, tetracycline-inducible
T1 sequence (Q15858 whole entry): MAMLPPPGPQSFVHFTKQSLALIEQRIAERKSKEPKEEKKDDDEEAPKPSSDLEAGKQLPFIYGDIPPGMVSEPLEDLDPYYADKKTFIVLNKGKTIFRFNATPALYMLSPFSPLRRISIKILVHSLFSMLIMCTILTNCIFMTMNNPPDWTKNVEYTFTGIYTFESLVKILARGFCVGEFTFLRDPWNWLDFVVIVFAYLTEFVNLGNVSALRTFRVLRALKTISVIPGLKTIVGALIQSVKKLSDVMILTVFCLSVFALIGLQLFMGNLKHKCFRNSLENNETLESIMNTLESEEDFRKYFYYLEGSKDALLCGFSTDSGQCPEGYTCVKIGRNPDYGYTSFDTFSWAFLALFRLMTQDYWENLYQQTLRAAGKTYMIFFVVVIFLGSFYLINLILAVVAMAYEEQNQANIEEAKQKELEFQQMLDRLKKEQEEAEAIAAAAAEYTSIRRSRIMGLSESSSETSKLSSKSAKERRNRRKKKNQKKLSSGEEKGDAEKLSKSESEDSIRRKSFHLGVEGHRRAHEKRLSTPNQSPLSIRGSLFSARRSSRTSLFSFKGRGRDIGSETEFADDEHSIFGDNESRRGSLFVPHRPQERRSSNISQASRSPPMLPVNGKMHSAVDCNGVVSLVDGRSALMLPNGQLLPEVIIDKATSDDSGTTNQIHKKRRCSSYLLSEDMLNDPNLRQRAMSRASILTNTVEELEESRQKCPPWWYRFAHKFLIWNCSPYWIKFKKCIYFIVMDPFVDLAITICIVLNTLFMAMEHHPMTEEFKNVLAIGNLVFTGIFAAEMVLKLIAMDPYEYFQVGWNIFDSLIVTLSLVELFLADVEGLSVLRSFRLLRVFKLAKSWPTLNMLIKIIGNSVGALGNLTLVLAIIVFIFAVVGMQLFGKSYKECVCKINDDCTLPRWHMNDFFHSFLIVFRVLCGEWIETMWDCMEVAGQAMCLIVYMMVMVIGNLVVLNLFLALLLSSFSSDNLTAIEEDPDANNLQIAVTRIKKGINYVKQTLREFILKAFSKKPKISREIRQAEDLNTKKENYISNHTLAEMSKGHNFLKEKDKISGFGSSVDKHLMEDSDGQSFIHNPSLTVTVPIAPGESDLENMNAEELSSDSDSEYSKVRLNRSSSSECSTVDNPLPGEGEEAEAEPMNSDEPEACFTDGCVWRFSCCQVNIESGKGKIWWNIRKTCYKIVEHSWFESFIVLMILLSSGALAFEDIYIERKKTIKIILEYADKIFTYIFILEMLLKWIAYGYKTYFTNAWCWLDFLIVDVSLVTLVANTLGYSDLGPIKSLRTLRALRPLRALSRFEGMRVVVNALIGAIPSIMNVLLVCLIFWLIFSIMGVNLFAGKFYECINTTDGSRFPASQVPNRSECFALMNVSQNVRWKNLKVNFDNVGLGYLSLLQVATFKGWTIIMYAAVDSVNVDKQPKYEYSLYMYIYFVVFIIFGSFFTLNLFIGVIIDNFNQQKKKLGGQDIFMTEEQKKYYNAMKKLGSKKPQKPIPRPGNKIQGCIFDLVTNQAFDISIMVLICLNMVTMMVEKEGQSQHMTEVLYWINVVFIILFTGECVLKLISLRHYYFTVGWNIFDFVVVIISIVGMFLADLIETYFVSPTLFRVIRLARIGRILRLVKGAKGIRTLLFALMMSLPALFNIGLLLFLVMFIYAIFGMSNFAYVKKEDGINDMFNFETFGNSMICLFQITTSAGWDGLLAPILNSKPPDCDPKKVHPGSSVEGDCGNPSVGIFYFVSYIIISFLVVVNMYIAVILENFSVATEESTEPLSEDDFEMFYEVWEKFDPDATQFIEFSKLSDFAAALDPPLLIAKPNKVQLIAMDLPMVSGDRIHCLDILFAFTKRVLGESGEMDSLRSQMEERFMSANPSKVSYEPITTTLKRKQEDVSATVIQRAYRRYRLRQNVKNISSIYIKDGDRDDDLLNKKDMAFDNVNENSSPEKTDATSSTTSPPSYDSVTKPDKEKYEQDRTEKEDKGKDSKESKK
Description: (§1) NaV1.7 was expressed in HEK293 cells upon induction with tetracycline. Cells were cultured in DMEM containing 10% dialyzed Fetal Bovine Serum (VWR, Radnor, Pa.), 1% Glutamax (VWR, Radnor, Pa.), 1% Penicillin-Streptomycin (VWR, Radnor, Pa.), 100 mg/L Hygromycin (Thermo Fisher Scientific, Waltham, Mass. and 5 mg/L Blasticidin (Alfa Aesar, Haverhill, Mass.). Cells were grown and maintained at 37° C. in a humidified environment containing 10% CO2 in air. Cells were detached from the culture flask for passage and harvested using 0.05% Trypsin-EDTA (Thermo Fisher Scientific, Waltham, Mass.). To induce NaV1.7, cells were induced with tetracycline (0.1-1 μg/mL, IBI Scientific, Peosta, Iowa) the day before recording.
Before experiments, cells were washed with DPBS (VWR, Radnor, Pa.), digested with Detachin (VWR Radnor, Pa.) and then triturated 10 times in CHO Serum-Free Media (VWR Radnor, Pa.) to resuspend the cells and to break apart cell aggregates. Cells were counted and the final concentration was set at 2-5 million cells per mL.
The intracellular solution contained the following: 140 mM CsF, 1 mM/5 mM EGTA/CsOH, 10 mM HEPES, 10 mM NaCl, adjusted to pH 7.3 with CsOH, and osmolality to 320 with sucrose. The external solution contained the following: 145 mM NaCl, 4 mM KCl, 1 mM MgCl2, 2 mM CaCl2, 10 mM HEPES, 10 mM Glucose, adjusted to pH 7.4 with CsOH and osmolality to 305 with sucrose. All chemicals are from Sigma-Aldrich, St. Louis, Mo. In order to test the degree of internal block by test compounds, the compounds were dissolved in internal solution at the indicated test concentration. […] In order to test the degree of external block by test compounds the compounds were dissolved in external solution at the indicated test concentration.
Automated Patch Clamps were performed on Qube 384 (Sophion Bioscience, Woburn Mass.) with multihole Qchips at a temperature setting of 22 degrees. The whole cells configuration was formed with default Qube seal and break-in parameter. The membrane potential was held at −100 mV before the voltage protocol began. Two voltage protocols were followed.
Step 1: Cells were held at −100 mV with a depolarized pulse to −20 mV for 10 ms, the interval was set at 5 s. Currents were corrected by default leak subtraction from every pulse. The duration was set at 5 mins.
Step 2: Cells were held at −100 mV with a depolarized pulse to −20 mV for 10 ms. The frequency was 5 Hz. Currents were corrected by leak subtraction calculated before step 2. The duration was set at 4 mins.
After Step 2, the Qchip was removed from the recording chamber. The internal solution was changed with solutions containing test compounds. Qchips were held at −100 mV without pulsing after being replaced in the recording chamber. The total solution switching time was 8 minutes. After the internal solution exchange, Cells were recorded and step 2 for repeated for 10 minutes.
Data analysis was performed by Sophion Analyzer. Cells were filtered with minimum 50 MOhm seal resistance and minimum 5 nA starting current. The rundown of the currents was corrected with control cells (Non-Drug). The remaining was calculated by averaging last 3 points in the end of experiments. The base line was calculated as the average of last 3 points of Step 2. IC50 curves were plotted with DR-plots/Hill function (a dose-response plot with a Hill fit).
Representative examples of the invention were tested for intracellular inhibition of NaV 1.7 in the automated patch clamp assay. Activity Range is reported as IC50: “++++” (<1 μM), “+++” (1-3 μM), “++” (3-10 μM) or “+” (10-30 μM).

[2] = PAMPA membrane permeability assay; assay type: physicochemical; conditions: pH 7.4 buffer, GIT lipid, 4 hours incubation
Description: The PAMPA assay (pION, Inc., Woburn Mass.) was used to determine the ability of compounds of the invention to cross an artificial lipid membrane by passive diffusion. Test compounds were dissolved in DMSO (10 mM) and diluted 200-fold in buffer (pION Inc., pH 7.4) to provide 50 uM stock solutions. Buffer (150 μL) was added to a UV blank plate and stock solutions (150 μL) were transferred to a UV reference plate. The blank and reference spectrum were read using a spectrophotometer. Stock solutions (200 μL) were added to the donor plate of the PAMPA sandwich plate and an accept plate painted with GIT lipid (pION Inc, 5 μL) was placed on top. Buffer (200 μL) was added to the acceptor plate and the PAMPA sandwich plate was incubated for 4 hours. Aliquots (150 μL) from the acceptor plate were added to a UV plate and read as acceptor spectrum. Aliquots (150 μL) of the donor solutions were added to a UV analysis plate and read as donor spectrum. The permeability coefficient of test compounds was calculated using PAMPA Explorer™ software (version 3.5.0.4) based on the AUC of the reference plate, the donor plate, and the acceptor plate.
The PAMPA permeability results (10^−6 cm/s) of representative compounds are reported as “+” (<0.1 10^−6 cm/s), “++” (0.1-2.0 10^−6 cm/s), “+++” (2.0-10.010^−6 cm/s) or “++++” (>10.0 10^−6 cm/s).

[3] = target: T1, NaV1.7; assay: Whole cell patch clamp, internal block of NaV1.7 current; assay type: cell-based; conditions: % inhibition at 1 μM test concentration, compound in internal solution, manual whole cell patch clamp
Description: as §1, with “expressed” for “expressed in HEK293 cells”, “C02” for “CO2”, “recording and plated onto 24-well plates. Cells were washed with DPBS (VWR, Radnor, Pa.), trypsinized and then triturated five times in 10 mL of growth media to break apart cell aggregates. For one 24-well plate, 2 mL of cell suspension was mixed with 23 mL of fresh growth media and 0.1-1 μg/mL tetracycline added. 1 ml of mixed media with cells was then added to each well of a 24-well plate, with a 12 mm coverslip already placed in the bottom of the well. Cells were then incubated in 37° C. and 10% CO2 overnight.” for “recording.”
The intracellular solution contained the following (in mM) CsCl 135, NaCl 10, EGTA 10, HEPES 10, MgCl2 2, adjusted to pH 7.2 with CsOH. The external solution was a normal Ringer solution containing (in mM) NaCl 155, HEPES 10, glucose 10, KCl 3.5, CaCl2 1.5, MgCl2 1 adjusted to pH 7.4 with NaOH. CsCl is from Alfa Aesar, Haverhill, Mass. All other chemicals are from Sigma-Aldrich, St. Louis, Mo. In order to test the degree of internal block by test compounds the compounds were dissolved in internal solution at the indicated test concentration. […] In order to test the degree of external block by test compounds the compounds were dissolved in external solution at the indicated test concentration.
18-24 hours after cells were induced with tetracycline, coverslips were placed into a chamber filled with Normal Ringer solution at room temperature and the chamber placed on a microscope. Pipettes were pulled from borosilicate glass on a P97 puller (Sutter Instrument, Novato, Calif.) and polished with a MF-830 Microforge (Narishige International USA, Inc, Amityville, N.Y.) to have a resistance of 1.5-2.5 MΩ when filled with CsCl internal solution at room temperature. Healthy cells (those that are round and translucent with no visible blemishes) were chosen for seal formation. A seal was formed between the pipette and the cell, and a brief pulse of suction was used to “break in” and establish the whole-cell configuration. The membrane potential was held at −100 mV before the voltage protocol began. Only cells with series resistance between 1.5-5 MΩ were retained for analysis. The voltage protocol was as follows: Cells were held at −100 mV for 12 ms followed by a hyperpolarizing step to −105 mV for 12 ms to monitor the leak. Cells were then stepped back to −100 mV for 40 ms. Cells were then depolarized to −20 mV for 10 ms and then returned to −100 mV for 26 ms (The FIGURE).
Once the recording was started, the voltage protocol was run at 30 second intervals for 5 minutes to get a stable baseline. This was followed by four 30-second periods of 5 Hz stimulation of the same voltage protocol separated by 1 minute of rest which was then followed by 0.33 Hz stimulation after the last train. Currents were recorded using PatchMaster software with Heka EPC10 (HEKA Electronics, Lambrecht, Germany). Only cells with inward current amplitudes at −20 mV between 400 pA and 4 nA were accepted. In addition, cells having leak currents greater than 10% of their current amplitudes were discarded.
The data was plotted using the Patchmaster software (HEKA Electronics, Lambrecht, Germany) and analyzed by plotting the minimum current during the voltage step to −20 mV (peak inward current) as a function of time. […]

CC[N+]1(CC(=O)Nc2c(C)cccc2C(=O)OC)CCCC(C(=O)NCC(C)C)C1.[I-] (centres unmarked) [Compound 48]
pIC50 [1]: 5.52 to 6.00
PAMPA (10^−6 cm/s) [2]: + (<0.1 10^−6 cm/s)

CC[N+]1(CC(=O)Nc2c(C)cccc2C(=O)OC)CCCC(C(=O)OC2CCCC2)C1.[I-] (centres unmarked) [Compound 22]
pIC50 [1]: 5.52 to 6.00
PAMPA (10^−6 cm/s) [2]: + (<0.1 10^−6 cm/s)

CCN(CC)C(=O)C1CCC[N+](CC(=O)Nc2c(C)cccc2C(=O)OC)(Cc2ccccc2)C1.O=C([O-])C(F)(F)F (centres unmarked) [Compound 38]
NaV1.7 Intracellular Inhibition [3]: ++ (70-30%)
PAMPA (10^−6 cm/s) [2]: + (<0.1 10^−6 cm/s)

CCOC(=O)c1cccc(C)c1NC(=O)C[n+]1cccn1C1CCCCC1.[Br-] [Compound 70]
NaV1.7 Intracellular Inhibition [3]: ++ (70-30%)
PAMPA (10^−6 cm/s) [2]: + (<0.1 10^−6 cm/s)

CCOC(=O)C1CCC[N+](CC)(CC(=O)Nc2c(C)cccc2C(=O)OC)C1.[I-] (centres unmarked) [Compound 24]
NaV1.7 Intracellular Inhibition [3]: ++ (70-30%)
PAMPA (10^−6 cm/s) [2]: + (<0.1 10^−6 cm/s)

CCOC(=O)c1cccc(C)c1NC(=O)C[n+]1cccc(C(=O)OC2CCCC2)c1.[Br-] [Compound 68]
pIC50 [1]: 5.00 to 5.52
PAMPA (10^−6 cm/s) [2]: +++ (2.0-10.010^−6 cm/s)

COC(=O)c1cccc(C)c1NC(=O)C[N+]1(Cc2ccccc2)CCCC(C(=O)OCC(C)C)C1 (mixture of isomers) [Compound 20]
pIC50 [1]: 5.52 to 6.00
PAMPA (10^−6 cm/s) [2]: + (<0.1 10^−6 cm/s)

CCNC(=O)C1CCC[N+](CC)(CC(=O)Nc2c(C)cccc2C(=O)OC)C1.O=C[O-] (centres unmarked) [Compound 49]
NaV1.7 Intracellular Inhibition [3]: + (<30%)
PAMPA (10^−6 cm/s) [2]: + (<0.1 10^−6 cm/s)

COC(=O)c1cccc(C)c1NC(=O)C[N+]1(Cc2ccccc2)CCCC(C(=O)NC2CCCCC2)C1 (mixture of isomers) [Compound 42]
pIC50 [1]: 5.52 to 6.00
PAMPA (10^−6 cm/s) [2]: + (<0.1 10^−6 cm/s)

COC(=O)c1cccc(C)c1NC(=O)C[N+]1(Cc2ccccc2)CCCC(C(=O)OC(C)C)C1 (centres unmarked) [Compound 19]
pIC50 [1]: > 6.00

CCOC(=O)c1cccc(C)c1NC(=O)C[N+]1(Cc2ccccc2)CCCCCCC1.[Br-] [Compound 10]
NaV1.7 Intracellular Inhibition [3]: +++ (90-70%)
PAMPA (10^−6 cm/s) [2]: + (<0.1 10^−6 cm/s)

COC(=O)c1cccc(C)c1NC(=O)C[N+]1(Cc2ccccc2)CCCC(C(=O)N2CCCCC2)C1 (mixture of isomers) [Compound 37]
pIC50 [1]: 5.52 to 6.00
PAMPA (10^−6 cm/s) [2]: + (<0.1 10^−6 cm/s)

CC[N+]1(CC(=O)Nc2c(C)cccc2C(=O)OC)CCCC(C(=O)NC2CCCC2)C1 (mixture of isomers) [Compound 52]
pIC50 [1]: 5.52 to 6.00
PAMPA (10^−6 cm/s) [2]: + (<0.1 10^−6 cm/s)

CCN(CC)C(=O)C1CCC[N+](CC)(CC(=O)Nc2c(C)cccc2C(=O)OC)C1.[I-] (centres unmarked) [Compound 53]
pIC50 [1]: 5.52 to 6.00
PAMPA (10^−6 cm/s) [2]: + (<0.1 10^−6 cm/s)

COC(=O)c1cccc(C)c1NC(=O)C[N+]1(Cc2ccccc2)CCCC(C(=O)OC2CCCCC2)C1 (mixture of isomers) [Compound 17]
pIC50 [1]: 5.00 to 5.52
PAMPA (10^−6 cm/s) [2]: +++ (2.0-10.010^−6 cm/s)

COC(=O)c1cccc(C)c1NC(=O)C[N+]1(Cc2ccccc2)CCCC(C(=O)OC2CCCC2)C1.[Br-] (centres unmarked) [Compound 21]
pIC50 [1]: 5.00 to 5.52
PAMPA (10^−6 cm/s) [2]: + (<0.1 10^−6 cm/s)

CC[N+]1(CC(=O)Nc2c(C)cccc2C(=O)OC)CCCC(C(=O)N2CCCCCC2)C1 (mixture of isomers) [Compound 51]
pIC50 [1]: 5.52 to 6.00
PAMPA (10^−6 cm/s) [2]: + (<0.1 10^−6 cm/s)

CCCN(CCC)C(=O)C1CCC[N+](CC)(CC(=O)Nc2c(C)cccc2C(=O)OC)C1 (mixture of isomers) [Compound 47]
PAMPA (10^−6 cm/s) [2]: + (<0.1 10^−6 cm/s)

CCCOC(=O)C1CCC[N+](CC(=O)Nc2c(C)cccc2C(=O)OC)(Cc2ccccc2)C1 (mixture of isomers) [Compound 18]
pIC50 [1]: 5.52 to 6.00
PAMPA (10^−6 cm/s) [2]: + (<0.1 10^−6 cm/s)

CC[N+]1(CC(=O)Nc2c(C)cccc2C(=O)OC)CCCC(C(=O)NC(C)C)C1.[I-] (centres unmarked) [Compound 50]
pIC50 [1]: 5.52 to 6.00
PAMPA (10^−6 cm/s) [2]: + (<0.1 10^−6 cm/s)
